How the values were obtained:
[1] = target: WRN helicase (core helicase motif aa N517-P1238) (Homo sapiens (Human), UniProt Q14191); experiment: WRN ATPase assay (ADP-Glo), DNA dependent ATP hydrolysis; format: biochemical; settings: 3 hours pre-incubation, 300 micromolar ATP, FLAP26 ssDNA; geometric means of at least 2 determinations
Source text: An ATPase assay was set up to measure the DNA dependent ATP hydrolysis activity of WRN helicase. This assay was used also to assess the inhibition properties of compounds of the invention on DNA dependent WRN ATPase activity.
The core helicase motif of the WRN protein (aa N517-P1238) was produced for this assay (protein production as described above). A 45 oligonucleotide sequence called “FLAP26” as described by Brosh et al., 2009, DOI: 10.1074/jbc.M111446200 ([…]; SEQ ID NO: 2) was purchased from IDT (Integrated DNA Technologies, Leuven, Belgium) and used as single strand DNA substrate. The ADP-Glo assay kit (Promega, Madison, WI) allowing the quantification of ADP produced in ATP hydrolysis reactions was used for setting up this assay. Time course experiments were first performed in order to determine the best enzymatic assay conditions (including buffer conditions, reaction time and concentrations of protein, ATP and DNA substrates). A typical reaction consists of 10 nM WRN protein, 0.2 nM FLAP26, and 300 micromolar ATP in the following assay buffer: 30 mM Tris pH7.5, 2 mM MgCl2, 0.02% BSA, 50 mM NaCl, 0.1% pluronic F127 prepared in DNAse free water.
To evaluate the inhibition properties of compounds of the invention, serial dilutions were prepared in DMSO (10 half log dilutions from a 10 mM DMSO solution). 50 nanoliters of each concentration was pre-incubated for 3 hours in a 384 small volume assay plate (Greiner #784075) with 2.5 microliters of a 20 nM WRN helicase protein in assay buffer with 600 micromolar ATP. Control wells were included with a “high control” (no inhibition), containing DMSO with no test compound, and “low controls” (maximal inhibition), containing buffer without protein. The reaction was started by addition of 2.5 microliters of FLAP26 at 0.4 nM and incubated for 30 minutes at room temperature. The reaction was stopped with the addition of 5 microliters of the first ADP-Glo reagent and incubated for one hour to remove the excess amount of ATP. Afterwards, 10 microliters of ATP detection reagent was added and incubated for an additional hour before reading. Luminescence output was recorded using Tecan 1000 reader, with 5 minutes delay before reading. Each concentration of compound was tested in duplicates in the assay plate.
Data analysis was carried out using an in-house developed software (Novartis Helios software application, Novartis Institutes for BioMedical Research, unpublished) using the methods described by Formenko et al., 2006, DOI: 10.1016/j.cmpb.2006.01.008. Following normalization of activity values for the wells to % inhibition (% inhibition=[(high control-sample)/(high control-low control)]×100), IC50 fitting was carried out from the duplicate determinations present on each plate according to [4]. Data analysis can also be carried out using commercially available software designed to derive IC50 values using 4-parameter fits (e.g. GraphPad Prism, XL fit). The reported IC50 values are the geometrical means of at least 2 independent replicates.

SW48 cells = experiment: Proliferation assay SW48 (CellTiterGlo, 96 hours); format: cell-based; settings: Homo sapiens
Source text: (§1) The colon carcinoma cell lines SW48 (RRID: CVCL_1724), HCT 116 (RRID: CVCL_0291) and SNU-407 (RRID: CVCL_5058) were obtained from ATCC. The WRN-knockdown insensitive colon carcinoma cell line DLD-1 (RRID: CVCL_0248) was obtained from the Korean Cell Line Bank (KCLB), and used to generate a derivative in which the endogenous WRN gene copies were knocked out by CRISPR-mediated editing using standard CRISPR methods. The resulting cell line, DLD1-WRN-KO, was used to assess potential off-target compound effects.
(§2) SW48, SNU-407 and DLD1-WRN-KO cells were cultured in growth medium composed of RPMI-1640 (Amimed Cat #1-41F22-1), 2 mM L-Glutamine (Amimed Cat #5-10K50), 10 mM HEPES (Gibco Cat #15630-056), 1 mM sodium pyruvate (Amimed Cat #5-60F00-H), 1× Penicillin-Streptomycin (Amimed Cat #4-01F00-H) and 10% fetal calf serum (Amimed Cat #2-01F30-G, Lot #LB11566P). HCT 116 cells were cultured in growth medium composed of McCoys 5A (Amimed catalog #1-18F01-1), 2 mM L-Glutamine (Amimed Cat #5-10K50), 1× Penicillin-Streptomycin (Amimed Cat #4-01F00-H) and 10% fetal calf serum (Amimed Cat #2-01F30-G, Lot #LB11566P). All cells were maintained at 37° C. in a humidified 5% CO2 incubator.
(§3) Following filtration through a Steriflip-NY 20 μm filter (Millipore Cat #SCNY00020), trypsinized cells were seeded in 100 microliters growth medium at 2′000 (SW48) or 1′500 (SNU-407, DLD1-WRN-KO, HCT 116) cells/well into white, clear-bottom 96-well plates (Costar Cat #3903). Three replicate plates were prepared for each compound treatment condition. In addition, one plate (termed “day 0”) was prepared to quantify the number of viable cells at the time of compound addition. Following overnight incubation at 37° C. in a humidified 5% CO2 atmosphere, eight 3-fold serial dilutions of a given compound stock (obtained at a concentration of 10 mM in DMSO and stored at 4° C.) were dispensed directly into each of the triplicate assay plates using a HP 300D non-contact Digital Dispenser (TECAN). The final concentration of DMSO was normalized to 0.1% in all wells. 96 hours after compound addition, cellular ATP levels as a surrogate for cell viability was assessed following addition of 50 microliters CellTiterGlo (Promega Cat #G7573) reagent and luminescence quantification on a MPLEX multi-mode plate-reader (TECAN) following a 10 minute incubation at room temperature. The number of viable cells in the “day 0” plate were quantified identically on the day of compound addition.
(§4) For data analysis, the assay background signal that was determined in wells containing medium, but no cells, was subtracted from all other data points prior to further calculations. The extent of growth inhibition and potential cell kill was assessed by comparing the ATP levels (measured using CellTiterGlo, Promega) in compound-treated cells with those present at the time of compound addition. To this end, the following conditional concept was programmatically applied in HELIOS, an in-house software applying a multi-step decision tree to arrive at optimal concentration response curve fits (Gubler et al, SLAS DOI: 10.1177/2472555217752140) to calculate % growth (% G) for each compound-treated well: % G=(T−V0)/V0))*100 when T<V0, and % G=(T−V0)/(V−V0)))*100 when T>V0, where V0 is the viability level at time of compound addition, while V and T represent vehicle-control and compound-treated viability levels, respectively, at the end of the compound incubation. 100%, 0% and −100% signify absence of growth inhibition, growth stasis, and complete cell kill, respectively. Compound concentrations leading to half-maximal growth inhibition (G150) and residual cell viability at the highest tested compound concentration (Data (cmax), expressed in percent) were routinely calculated. Data analysis can also be carried out using commercially available software designed to derive IC50 values using 4-parameter fits (e.g. GraphPad Prism, XL fit). […]

DLD1-WRN-KO cells = experiment: Proliferation assay DLD1-WRN-KO (CellTiterGlo, 96 hours), off-target effects; format: cell-based; settings: Homo sapiens
Source text: as §1, §2, §3, §4

Chain of WRN helicase (core helicase motif aa N517-P1238) (Q14191 517-1238): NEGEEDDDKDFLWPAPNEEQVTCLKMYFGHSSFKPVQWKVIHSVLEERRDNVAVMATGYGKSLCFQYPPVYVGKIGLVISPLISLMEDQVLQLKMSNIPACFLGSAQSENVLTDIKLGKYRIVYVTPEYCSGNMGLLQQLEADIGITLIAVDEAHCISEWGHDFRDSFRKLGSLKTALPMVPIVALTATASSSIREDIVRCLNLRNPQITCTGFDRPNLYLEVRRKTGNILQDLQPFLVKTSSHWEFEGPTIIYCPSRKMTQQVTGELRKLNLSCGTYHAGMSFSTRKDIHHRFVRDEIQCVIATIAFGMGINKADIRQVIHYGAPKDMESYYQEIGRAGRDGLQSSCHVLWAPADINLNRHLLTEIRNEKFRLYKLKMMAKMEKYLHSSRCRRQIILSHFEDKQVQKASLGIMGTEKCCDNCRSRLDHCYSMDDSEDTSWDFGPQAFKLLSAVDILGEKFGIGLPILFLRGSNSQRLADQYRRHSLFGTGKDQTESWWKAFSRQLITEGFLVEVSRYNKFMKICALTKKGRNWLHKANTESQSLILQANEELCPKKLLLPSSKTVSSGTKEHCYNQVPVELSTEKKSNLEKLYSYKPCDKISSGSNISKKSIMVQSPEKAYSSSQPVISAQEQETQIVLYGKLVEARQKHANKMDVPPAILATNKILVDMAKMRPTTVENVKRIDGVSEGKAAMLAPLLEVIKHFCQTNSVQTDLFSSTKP

Compound | IC50 [1] | GI50 (SW48 cells) | GI50 (DLD1-WRN-KO cells)
Cc1ncnc(C(=O)N2CCN(c3c4n(c5nc(C6=CCOCC6)nn5c3=O)[C@@H](C(=O)Nc3ccc(C(F)(F)F)cc3Cl)C[C@@H]4C)CC2)c1O [Example 14C, (7S,9R)—N-(2-chloro-4-(trifluoromethyl)phenyl)-2-(3,6-dihydro-2H-pyran-4-yl)-6-(4-(5-hydroxy-6-methylpyrimidine-4-carbonyl)piperazin-1-yl)-7-methyl-5-oxo-5,7,8,9-tetrahydropyrrolo[1,2-c][1,2,4]triazolo[1,5-a]pyrimidine-9-carboxamide] | 100 nM | 300 nM | > 10000 nM
C[C@@H]1C[C@H](C(=O)Nc2ccc(C(F)(F)F)cc2Cl)n2c1c(N1CCN(C(=O)c3nn(C)c(=O)[nH]3)CC1)c(=O)n1nc(C3=CCOCC3)nc21 [Example 7, (7R,9R)—N-(2-chloro-4-(trifluoromethyl)phenyl)-2-(3,6-dihydro-2H-pyran-4-yl)-7-methyl-6-(4-(1-methyl-5-oxo-4,5-dihydro-1H-1,2,4-triazole-3-carbonyl)piperazin-1-yl)-5-oxo-5,7,8,9-tetrahydropyrrolo[1,2-c][1,2,4]triazolo[1,5-a]pyrimidine-9-carboxamide] | 50 nM | 300 nM | > 10000 nM
Cc1cc(C(F)(F)F)ccc1NC(=O)[C@H]1C[C@H](C)c2c(N3CCN(C(=O)c4ncccc4O)CC3)c(=O)n3nc(C4=CCOCC4)nc3n21 [Example 15C, (7S,9R)-2-(3,6-dihydro-2H-pyran-4-yl)-6-(4-(3-hydroxypicolinoyl)piperazin-1-yl)-7-methyl-N-(2-methyl-4-(trifluoromethyl)phenyl)-5-oxo-5,7,8,9-tetrahydropyrrolo[1,2-c][1,2,4]triazolo[1,5-a]pyrimidine-9-carboxamide] | 100 nM | 400 nM | > 10000 nM
Cc1cc(C(F)(F)F)ccc1NC(=O)[C@@H]1CCc2c(N3CCN(C(=O)c4ncccc4O)CC3)c(=O)n3nc(C4=CCOCC4)nc3n21 [Example 20B, (S)-2-(3,6-dihydro-2H-pyran-4-yl)-6-(4-(3-hydroxypicolinoyl)piperazin-1-yl)-N-(2-methyl-4-(trifluoromethyl)phenyl)-5-oxo-5,7,8,9-tetrahydropyrrolo[1,2-c][1,2,4]triazolo[1,5-a]pyrimidine-9-carboxamide] | > 10000 nM | > 10000 nM | > 10000 nM
Cc1ncnc(C(=O)N2CCN(c3c4n(c5nc(N6CCOCC6)nn5c3=O)[C@@H](C(=O)Nc3ccc(C(F)(F)F)cc3Cl)C[C@H]4C)CC2)c1O [Example 2A, (7R,9R)—N-(2-chloro-4-(trifluoromethyl)phenyl)-6-(4-(5-hydroxy-6-methylpyrimidine-4-carbonyl)piperazin-1-yl)-7-methyl-2-morpholino-5-oxo-5,7,8,9-tetrahydropyrrolo[1,2-c][1,2,4]triazolo[1,5-a]pyrimidine-9-carboxamide] | 20 nM | 40 nM | > 10000 nM
CC(=O)N1CCN(c2c3n(c4nc(-c5ccccc5)nn4c2=O)C(C(=O)Nc2ccc(C(F)(F)F)cc2)CC3)CC1 (racemic) [Example 22, rac-6-(4-acetylpiperazin-1-yl)-5-oxo-2-phenyl-N-(4-(trifluoromethyl)phenyl)-5,7,8,9-tetrahydropyrrolo[1,2-c][1,2,4]triazolo[1,5-a]pyrimidine-9-carboxamide] | 700 nM | 6000 nM | > 10000 nM
Cc1cc(C(F)(F)F)ccc1NC(=O)[C@H]1CCc2c(N3CCN(C(=O)c4ncccc4O)CC3)c(=O)n3nc(C4=CCOCC4)nc3n21 [Example 20A, (R)-2-(3,6-dihydro-2H-pyran-4-yl)-6-(4-(3-hydroxypicolinoyl)piperazin-1-yl)-N-(2-methyl-4-(trifluoromethyl)phenyl)-5-oxo-5,7,8,9-tetrahydropyrrolo[1,2-c][1,2,4]triazolo[1,5-a]pyrimidine-9-carboxamide] | 90 nM | 300 nM | > 10000 nM
Cc1cc(C(F)(F)F)ccc1NC(=O)[C@@H]1C[C@@H](C)c2c(N3CCN(C(=O)c4ncccc4O)CC3)c(=O)n3nc(C4=CCOCC4)nc3n21 [Example 15D, (7R,9S)-2-(3,6-dihydro-2H-pyran-4-yl)-6-(4-(3-hydroxypicolinoyl)piperazin-1-yl)-7-methyl-N-(2-methyl-4-(trifluoromethyl)phenyl)-5-oxo-5,7,8,9-tetrahydropyrrolo[1,2-c][1,2,4]triazolo[1,5-a]pyrimidine-9-carboxamide] | 61000 nM | > 10000 nM | > 10000 nM
C[C@@H]1C[C@H](C(=O)Nc2ccc(C(F)(F)F)cc2Cl)n2c1c(N1CCN(C(=O)c3ncncc3O)CC1)c(=O)n1nc(C3=CCOCC3)nc21 [Example 13, (7R,9R)—N-(2-chloro-4-(trifluoromethyl)phenyl)-2-(3,6-dihydro-2H-pyran-4-yl)-6-(4-(5-hydroxypyrimidine-4-carbonyl)piperazin-1-yl)-7-methyl-5-oxo-5,7,8,9-tetrahydropyrrolo[1,2-c][1,2,4]triazolo[1,5-a]pyrimidine-9-carboxamide] | 50 nM | 40 nM | > 10000 nM

Reference: patent US20240245694A1, “Tricyclic Compounds and their Uses” (Novartis AG, priority 2022, published 2024)
